Measurements as given in ChEMBL document CHEMBL3769369, “Ligand-based modeling of diverse aryalkylamines yields new potent P-glycoprotein inhibitors” (Eur J Med Chem, 2016).

Experiments:
[1] = Cytotoxicity against human fibroblast cells assessed as viable cells at 50 uM by trypan blue staining based assay; format: cell-based; details: read-out: Activity
MCF7 [2] = assay: Cytotoxicity against human MCF7 cells assessed as viable cells at 50 uM by trypan blue staining based assay; format: functional; details: read-out: Activity
[3] = Inhibition of P-gp in human MCF7/D70 cells assessed as decrease in doxorubicin IC50 at 50 uM after 72 hrs by MTT assay (Rvb doxorubicin alone IC50 = 0.906 +/- 0.02 uM); format: cell-based; details: MCF7/D70, 72 h
[4] = Cytotoxicity against human fibroblast cells assessed as viable cells at 10 uM by trypan blue staining based assay; format: cell-based; details: read-out: Activity
MCF7 [5] = assay: Cytotoxicity against human MCF7 cells assessed as viable cells at 10 uM by trypan blue staining based assay; format: functional; details: read-out: Activity
[6] = Inhibition of P-gp in human MCF7/D70 cells assessed as decrease in doxorubicin IC50 at 10 uM after 72 hrs by MTT assay (Rvb doxorubicin alone IC50 = 0.906 +/- 0.02 uM); format: cell-based; details: MCF7/D70, 72 h
[7] = Inhibition of P-gp in human MCF7/D70 cells assessed as decrease in doxorubicin IC50 at 1 uM after 72 hrs by MTT assay (Rvb doxorubicin alone IC50 = 0.906 +/- 0.02 uM); format: cell-based; details: MCF7/D70, 72 h

| Structure (SMILES) | viability at 50 µM [1] | viability at 50 µM (MCF7 [2]) | IC50 [3] | viability at 10 µM [4] | viability at 10 µM (MCF7 [5]) | IC50 [6] | IC50 [7] |
| --- | --- | --- | --- | --- | --- | --- | --- |
| COc1ccc(C2NC(C(=O)O)Cc3c2[nH]c2ccccc32)cc1OC (centres undefined) | 100% | 92% | 1180 nM | 92% | 89% |  |  |
| CCCC(=O)N(C)C1=Nc2ccc(Cl)cc2C(c2ccccc2)=[N+]([O-])C1 | 68% | 70% | 490 nM | 100% | 95% | 380 nM | 390 nM |
| CCC1=C(CC2NCCc3ccccc32)CC2c3cc(OC)c(OC)cc3CCN2C1 (centres undefined) | 16% | 5% |  | 46% | 31% |  |  |
| CCN(CC)CCC(=O)NC1c2ccc(Cl)cc2Oc2c(C)cccc21 (centres undefined) | 13% | 9% |  | 100% | 100% |  |  |
| Cc1nn(C(=O)Cc2ccccc2)c2c1C(c1ccc(O)cc1)SC(=N)N2 (centres undefined) | 63% | 55% | 2070 nM | 100% | 96% |  |  |
| CCC(C)N1CN(c2ccccc2)C2(CCN(CC3COc4ccccc4O3)CC2)C1=O (centres undefined) | 70% | 11% |  | 100% | 93% |  |  |
| CN/N=C(\C)C(CN1CCCCC1)C(C1=C(O)c2ccccc2OC1)c1ccccc1 (centres undefined) | 75% | 97% | 1080 nM | 100% | 100% |  |  |
| O=C1CN(CCN2CC(=O)N(Cc3ccccc3)C(=O)C2)CC(=O)N1Cc1ccccc1 | 82% | 69% | 240 nM | 100% | 76% | 850 nM |  |
| CC1(CN2CCCC2)CCC(NC(=O)C(c2ccccc2)c2ccccc2)C(C)(C)O1 (centres undefined) | 54% | 51% | 140 nM | 88% | 100% | 1730 nM |  |
| CCCNCCC(O)c1cc(C(F)(F)F)nc2c(C(F)(F)F)cccc12 (centres undefined) | 19% | 6% |  | 67% | 9% |  |  |
| CCN(Cc1ccccc1)C(=O)C1CCN(Cc2c[nH]c3ccccc23)CC1 | 21% | 13% | 620 nM | 56% | 48% |  |  |
| ClCCNCc1cccc(Nc2ccnc3cc(Cl)ccc23)c1 | 48% | 15% |  | 96% | 86% |  |  |
| N=c1[nH]c(=O)n(CCCCOc2ccccc2)cc1-c1ccc(Cl)c(Cl)c1 | 56% | 58% | 240 nM | 100% | 77% | 570 nM |  |
| CC1CN(CCOC(=O)C(c2ccccc2)C2C=CCCC2)C(C)(C)C1 (centres undefined) | 36% | 61% |  | 84% | 93% |  |  |
| CN1CN(c2ccccc2)C2(CCN(CCc3cc4ccccc4o3)CC2)C1=O | 21% | 14% |  | 92% | 31% |  |  |
| CC1(C)CCN(CCOC(=O)C(c2ccccc2)C2C=CCCC2)C1 (centres undefined) | 59% | 53% | 550 nM | 100% | 98% |  |  |
| O=C1NCN(c2ccccc2)C12CCN(CCCS(=O)(=O)c1ccccc1)CC2 | 100% | 80% | 240 nM | 100% | 77% | 1140 nM |  |
| COc1cc2c(cc1OC)C1C(CO)c3ccc4c(c3CN1CC2)OCO4 (centres undefined) | 75% | 72% | 570 nM | 100% | 90% |  |  |

| Structure (SMILES) | viability at 50 µM [1] | viability at 50 µM (MCF7 [2]) | IC50 [3] | viability at 10 µM [4] | viability at 10 µM (MCF7 [5]) | IC50 [6] | IC50 [7] |
| --- | --- | --- | --- | --- | --- | --- | --- |
| COc1cc(C2CNCc3cc(OC)c(O)cc32)ccc1O (centres undefined) | 90% | 73% | 610 nM | 100% | 76% | 840 nM |  |
| NC(c1ccc2c(c1)OCO2)C(O)c1ccc2c(c1)OCO2 (centres undefined) | 82% | 72% | 2520 nM | 100% | 74% |  |  |
| COc1cc2c(cc1OC)C(c1ccc(O)c(O)c1)CNC2 (centres undefined) | 97% | 97% | 800 nM | 100% | 93% |  |  |
| COc1ccc(Nc2ccnc3cc(Cl)ccc23)cc1CNCC(C)C | 17% | 6% |  | 12% | 26% |  |  |
| Cc1ccc(N2CCN(CCCOC(=O)Nc3cccc4ccccc34)CC2)cc1 | 89% | 70% | 830 nM | 89% | 93% |  |  |
| Fc1ccc(N/C2=N/CC/N=C(/Nc3ccc(F)cc3)SS2)cc1 | 57% | 58% | 190 nM | 100% | 92% | 320 nM | 320 nM |
| COc1cc(-n2c(CCc3nc(-c4ccc(Cl)cc4)no3)n[nH]c2=S)c(OC)cc1Cl | 61% | 71% | 300 nM | 74% | 86% | 310 nM | 940 nM |
| Cc1ccc2c(c1)C(NC(Cc1ccccc1)C(=O)O)C(Cl)C(=O)O2 (centres undefined) | 100% | 74% | 850 nM | 94% | 75% |  |  |
| COc1cc(C2CNCc3cc(O)c(OC)cc32)ccc1O (centres undefined) | 100% | 80% | 830 nM | 100% | 75% |  |  |
| O=C1OCCN1N1C(=O)CC2(CCN(Cc3ccccc3)CC2)C1=O | 100% | 89% | 510 nM | 100% | 95% |  |  |
| C[N+]1(CCOC(=O)C(c2ccccc2)C2C=CCC2)CCCC12CCCCC2 (centres undefined) | 81% | 75% | 1550 nM | 100% | 89% |  |  |
| CN(C)C1C(c2ccccc2)S(=O)(=O)C1C1CS(=O)(=O)C1c1ccccc1 (centres undefined) | 19% | 5% |  | 39% | 68% |  |  |
| CC1CN(CC2COc3ccccc3O2)C(C)CN1CC1COc2ccccc2O1 (centres undefined) | 77% | 53% | 580 nM | 100% | 80% | 1450 nM |  |
| CN1CCc2ccccc2C1Cc1cc(OCc2ccccc2)ccc1N (centres undefined) | 16% | 6% |  | 82% | 74% |  |  |
| CC1CN(CCOC(=O)C(c2ccccc2)C2C=CCCC2)CC1C (centres undefined) | 100% | 74% | 2120 nM | 100% | 89% |  |  |
| C=CCN1CC[C@]23c4c5ccc(O)c4O[C@H]2C(=O)CC[C@@]3(O)[C@H]1C5 [NALOXONE] | 100% | 67% | 360 nM | 100% | 74% | 850 nM |  |
| COc1ccc(CCN(C)CCCC(C#N)(c2ccc(OC)c(OC)c2)C(C)C)cc1OC (centres undefined) [VERAPAMIL] |  |  |  |  |  | 200 nM |  |
